Measurements: US9926282B2, “Phthalazinones and isoquinolinones as rock inhibitors” (BRISTOL-MYERS SQUIBB COMPANY, priority 2013, dated 2018)
Counter-ions that a name gives are not always drawn.

Key:
rat stroke model = conditions: cited from earlier work
[1] = tested on: congestive heart failure in Dahl salt-sensitive rats; conditions: cited from earlier work
neointimal formation = conditions: rats; cited from earlier work
ROCK2 = ROCK2 (Homo sapiens (Human), UniProt O75116); assay: ROCK assay (LABCHIP peptide phosphorylation), ROCK2; assay type: biochemical; conditions: 5 μM ATP, 1.5 μM peptide substrate
Sequence of ROCK2 (O75116 whole entry, species assumed): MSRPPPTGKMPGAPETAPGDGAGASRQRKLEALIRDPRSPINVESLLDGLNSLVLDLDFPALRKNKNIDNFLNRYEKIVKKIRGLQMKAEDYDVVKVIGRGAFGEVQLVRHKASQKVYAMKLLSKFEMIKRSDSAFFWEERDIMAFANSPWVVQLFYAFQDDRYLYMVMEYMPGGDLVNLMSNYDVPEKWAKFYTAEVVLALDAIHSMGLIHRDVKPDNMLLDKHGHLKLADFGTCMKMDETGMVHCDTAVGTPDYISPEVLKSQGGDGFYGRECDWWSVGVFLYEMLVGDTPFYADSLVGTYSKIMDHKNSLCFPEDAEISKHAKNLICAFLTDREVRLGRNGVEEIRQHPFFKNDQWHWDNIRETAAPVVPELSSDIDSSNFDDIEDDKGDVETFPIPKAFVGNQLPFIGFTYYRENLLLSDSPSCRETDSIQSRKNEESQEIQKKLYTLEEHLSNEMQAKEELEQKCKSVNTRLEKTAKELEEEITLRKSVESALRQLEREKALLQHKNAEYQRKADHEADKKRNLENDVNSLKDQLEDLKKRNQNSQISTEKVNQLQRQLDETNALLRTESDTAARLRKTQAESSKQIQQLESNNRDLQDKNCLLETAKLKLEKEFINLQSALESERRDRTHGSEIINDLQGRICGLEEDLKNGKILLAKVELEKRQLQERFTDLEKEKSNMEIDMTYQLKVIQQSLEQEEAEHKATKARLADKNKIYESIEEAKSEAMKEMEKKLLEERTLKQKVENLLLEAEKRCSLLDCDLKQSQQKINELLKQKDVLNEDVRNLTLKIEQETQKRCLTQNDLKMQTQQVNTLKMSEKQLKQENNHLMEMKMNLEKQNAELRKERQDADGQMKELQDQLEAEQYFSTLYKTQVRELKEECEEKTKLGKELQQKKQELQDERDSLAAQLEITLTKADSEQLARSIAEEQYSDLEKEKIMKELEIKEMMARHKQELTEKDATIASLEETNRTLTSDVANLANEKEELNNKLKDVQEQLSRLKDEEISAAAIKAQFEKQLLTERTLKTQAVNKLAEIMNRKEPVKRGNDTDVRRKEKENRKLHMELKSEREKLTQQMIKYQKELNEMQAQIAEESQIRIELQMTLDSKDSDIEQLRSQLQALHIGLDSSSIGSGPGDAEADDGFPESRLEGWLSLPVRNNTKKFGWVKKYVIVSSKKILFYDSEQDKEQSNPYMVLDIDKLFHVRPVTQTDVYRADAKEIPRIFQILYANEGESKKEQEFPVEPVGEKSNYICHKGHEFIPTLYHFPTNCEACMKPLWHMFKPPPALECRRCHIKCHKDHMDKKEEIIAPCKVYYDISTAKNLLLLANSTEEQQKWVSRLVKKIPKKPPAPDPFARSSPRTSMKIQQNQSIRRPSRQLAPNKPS

ROCK1 = ROCK1 (Homo sapiens (Human), UniProt Q13464); assay: ROCK assay (LABCHIP peptide phosphorylation), ROCK1; assay type: biochemical; conditions: 5 μM ATP, 1.5 μM peptide substrate; read-out: ROCK1 IC50
Sequence of ROCK1 (Q13464 whole entry, species assumed): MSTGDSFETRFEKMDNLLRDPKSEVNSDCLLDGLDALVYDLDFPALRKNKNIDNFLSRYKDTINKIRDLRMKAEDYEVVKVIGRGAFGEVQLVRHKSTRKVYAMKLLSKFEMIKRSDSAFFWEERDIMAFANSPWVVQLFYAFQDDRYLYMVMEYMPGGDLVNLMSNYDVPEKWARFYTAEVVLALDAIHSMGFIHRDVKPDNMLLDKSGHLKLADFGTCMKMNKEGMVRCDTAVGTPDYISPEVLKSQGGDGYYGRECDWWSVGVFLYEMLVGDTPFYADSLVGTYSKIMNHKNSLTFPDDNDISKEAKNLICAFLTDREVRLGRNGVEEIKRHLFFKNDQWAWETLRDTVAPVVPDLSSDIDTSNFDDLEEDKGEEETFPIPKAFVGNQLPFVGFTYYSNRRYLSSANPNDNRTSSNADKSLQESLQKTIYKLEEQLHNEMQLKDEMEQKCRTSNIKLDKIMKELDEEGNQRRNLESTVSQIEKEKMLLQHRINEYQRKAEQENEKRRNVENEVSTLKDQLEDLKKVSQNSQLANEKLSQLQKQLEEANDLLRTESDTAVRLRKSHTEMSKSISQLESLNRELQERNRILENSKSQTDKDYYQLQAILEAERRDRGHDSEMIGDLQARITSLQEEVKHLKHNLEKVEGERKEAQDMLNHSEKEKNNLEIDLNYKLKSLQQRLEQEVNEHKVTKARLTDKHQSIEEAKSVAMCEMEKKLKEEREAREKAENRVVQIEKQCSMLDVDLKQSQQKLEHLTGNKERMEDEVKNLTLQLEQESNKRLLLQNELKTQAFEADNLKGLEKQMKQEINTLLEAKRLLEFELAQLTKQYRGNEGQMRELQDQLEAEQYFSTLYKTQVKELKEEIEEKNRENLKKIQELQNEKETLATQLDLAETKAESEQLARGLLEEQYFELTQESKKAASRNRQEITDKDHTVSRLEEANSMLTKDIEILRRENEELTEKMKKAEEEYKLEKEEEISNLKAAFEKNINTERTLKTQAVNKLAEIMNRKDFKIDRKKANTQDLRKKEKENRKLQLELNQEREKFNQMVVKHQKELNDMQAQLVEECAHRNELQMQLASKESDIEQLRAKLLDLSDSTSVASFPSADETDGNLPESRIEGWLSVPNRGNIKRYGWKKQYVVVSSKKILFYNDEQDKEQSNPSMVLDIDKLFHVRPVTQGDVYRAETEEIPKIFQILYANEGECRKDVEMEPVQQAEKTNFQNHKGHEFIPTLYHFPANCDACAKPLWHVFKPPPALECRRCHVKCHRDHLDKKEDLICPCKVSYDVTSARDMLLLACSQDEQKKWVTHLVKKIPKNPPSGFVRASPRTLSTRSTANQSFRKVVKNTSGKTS

SMILES | IC50 (ROCK2) [nM] | IC50 (ROCK1) [nM] | infarct size and neurologic deficit (rat stroke model) | ventricular hypertrophy, fibrosis and function [1] | neointimal formation (neointimal formation)
O=S(=O)(c1cccc2cnccc12)N1CCCNCC1 [fasudil] |  |  | reduce both the infarct size and neurologic deficit |  | 
C[C@@H](N)[C@H]1CC[C@H](C(=O)Nc2ccncc2)CC1 [Example Y-27632] |  |  |  | improve ventricular hypertrophy, fibrosis and function | inhibited neointimal formation
Cc1cc(NC(=O)c2nn(CCN(C)C)c3ccccc23)ccc1-c1n[nH]c(=O)c2ccccc12 [Example 303, 1-[2-(dimethylamino)ethyl]-N-[3-methyl-4-(4-oxo-3,4-dihydrophthalazin-1-yl)phenyl]-1H-indazole-3-carboxamide] | 0.1 to 100 | 101 to 1000 |  |  | 
O=C(Nc1ccc(-c2n[nH]c(=O)c3ccccc23)cc1)c1nn(Cc2cccnc2)c2ccccc12 [Example 161, N-[4-(4-oxo-3,4-dihydrophthalazin-1-yl)phenyl]-1-(pyridin-3-ylmethyl)-1H-indazole-3-carboxamide] | 0.1 to 100 | 0.1 to 100 |  |  | 
O=C(Cc1ccc(-c2n[nH]c(=O)c3ccccc23)cc1)N1CCc2cc(OC(F)(F)F)cc(Br)c21 [Example 253, 4-(4-(2-(7-Bromo-5-(trifluoromethoxy)indolin-1-yl)-2-oxoethyl)phenyl)phthalazin-1(2H)-one] | 101 to 1000 | 1000 to 50000 |  |  | 
Cc1cc(NC(=O)c2nn(CC3CNC3)c3ccccc23)ccc1-c1n[nH]c(=O)c2ccccc12 [Example 326, 1-(Azetidin-3-ylmethyl)-N-(3-methyl-4-(4-oxo-3,4-dihydrophthalazin-1-yl)phenyl)-1H-indazole-3-carboxamide, TFA] | 101 to 1000 | 0.1 to 100 |  |  | 
O=C(Nc1ccc(-c2n[nH]c(=O)c3ccccc23)c(CO)c1)c1nn(CC2CCOC2)c2ccccc12 (stereo not drawn) [Example 355, N-(3-(Hydroxymethyl)-4-(4-oxo-3,4-dihydrophthalazin-1-yl)phenyl)-1-((tetrahydrofuran-3-yl)methyl)-1H-indazole-3-carboxamide] | 0.1 to 100 | 1000 to 50000 |  |  | 

More lines, main results first:

IC50 (ROCK2) [nM] | IC50 (ROCK1) [nM] | SMILES | infarct size and neurologic deficit (rat stroke model) | ventricular hypertrophy, fibrosis and function [1] | neointimal formation (neointimal formation)
0.1 to 100 | 101 to 1000 | O=C(Nc1ccc(-c2n[nH]c(=O)c3ccccc23)cc1)c1cnn(C2COC2)c1 [Example 389, 1-(Oxetan-3-yl)-N-(4-(4-oxo-3,4-dihydrophthalazin-1-yl)phenyl)-1H-pyrazole-4-carboxamide] |  |  | 
0.1 to 100 | 101 to 1000 | O=C(Cc1ccc(-c2n[nH]c(=O)c3ccccc23)cc1)N1CCc2ccc(C(F)(F)F)cc21 [Example 35, 4-(4-{2-oxo-2-[6-(trifluoromethyl)-2,3-dihydro-1H-indol-1-yl]ethyl}phenyl)-1,2-dihydrophthalazin-1-one] |  |  | 
0.1 to 100 | 101 to 1000 | CCn1ccc(C(=O)Nc2ccc(-c3n[nH]c(=O)c4ccccc34)cc2)n1 [Example 204, 1-ethyl-N-[4-(4-oxo-3,4-dihydrophthalazin-1-yl)phenyl]-1H-pyrazole-3-carboxamide] |  |  | 
0.1 to 100 | 101 to 1000 | COc1ccc(-n2nnc(C)c2C(=O)Nc2ccc(-c3n[nH]c(=O)c4ccccc34)cc2)cc1 [Example 402, 1-(4-Methoxyphenyl)-4-methyl-N-(4-(4-oxo-3,4-dihydrophthalazin-1-yl)phenyl)-1H-1,2,3-triazole-5-carboxamide] |  |  | 
101 to 1000 | 101 to 1000 | CC1(C)CCc2[nH]cc(C(=O)Nc3ccc(-c4n[nH]c(=O)c5ccccc45)cc3)c2C1=O [Example 97, 5,5-dimethyl-4-oxo-N-[4-(4-oxo-3,4-dihydrophthalazin-1-yl)phenyl]-4,5,6,7-tetrahydro-1H-indole-3-carboxamide] |  |  | 
0.1 to 100 | 0.1 to 100 | Cc1cc(NC(=O)c2c(C)nc3ccccn23)ccc1-c1n[nH]c(=O)c2ccccc12 [Example 311, 2-methyl-N-[3-methyl-4-(4-oxo-3,4-dihydrophthalazin-1-yl)phenyl]imidazo[1,2-a] pyridine-3-carboxamide] |  |  | 
0.1 to 100 | 0.1 to 100 | O=C(Nc1ccc(-c2n[nH]c(=O)c3ccccc23)cc1)c1cnn2cc(OCCN3CCCC3)ccc12 [Example 176, N-[4-(4-oxo-3,4-dihydrophthalazin-1-yl)phenyl]-6-[2-(pyrrolidin-1-yl)ethoxy]pyrazolo[1,5-a]pyridine-3-carboxamide] |  |  | 
0.1 to 100 | 101 to 1000 | COc1cccc(-n2cc(C(=O)Nc3ccc(-c4n[nH]c(=O)c5ccccc45)cc3)cn2)c1 [Example 203, 1-(3-methoxyphenyl)-N-[4-(4-oxo-3,4-dihydrophthalazin-1-yl)phenyl]-1H-pyrazole-4-carboxamide] |  |  | 
0.1 to 100 | 101 to 1000 | Cn1nc(C(F)(F)F)cc1C(=O)Nc1ccc(-c2n[nH]c(=O)c3ccccc23)cc1 [Example 408, 1-Methyl-N-(4-(4-oxo-3,4-dihydrophthalazin-1-yl)phenyl)-3-(trifluoromethyl)-1H-pyrazole-5-carboxamide] |  |  | 
0.1 to 100 | 1000 to 50000 | Cc1cc(NC(=O)Cc2ccc(-c3n[nH]c(=O)c4ccccc34)cc2)no1 [Example 27, N-(5-methyl-1,2-oxazol-3-yl)-2-[4-(4-oxo-3,4-dihydrophthalazin-1-yl)phenyl]acetamide] |  |  | 
